Legend:
mouse cornea nociception = experiment: Measurement of cornea sensitivity, eye-wiping test (NaCl 5M); format: in vivo, mice; settings: for MPE increase, overall: three experiments; for MPE (maximal possible effect): one 10 μl drop
From the text: 8 week-old C57BL6/N (Charles-River, Italy) and B6.Cg-Tac1^tm1Bbm/J (SP-KO mouse, Jackson) male mice were used in all experiments. Carbon dioxide inhalation and subsequent cervical dislocation were applied to euthanize the animals. All experimental protocols were approved by the Animal Care and Use Committee of the IRCCS San Raffaele Scientific Institute, in accordance with the ARVO Statement for the Use of Animals in Ophthalmic and Vision Research.
Mice 8-week-old C57BL6/N (Charles-River, Italy) and B6.Cg-Tac1^tm1Bbm/J (Jackson) corneal sensitivity was measured with the eye wiping test^36. Briefly, animals were placed individually in an empty cage for 5 min to get acclimatized; one drop (10 μl) of NaCl 5M was put into the right eye of the animal and eye wipings with the ipsilateral forepaw were counted for 30 s. Subsequently, a drop (10 μl) of Fosaprepitant (2, 10 and 50 mg/mL, powder was weighted and dissolved in PBS to reach the desired final concentration, Ivemend, Merck Sharp & Dohme B.V), PBS, Diclofenac (0.1%, Dicloftil, Farmingea) or Oxybuprocaine chloride (4 mg/ml, Novesina, Laboratoire Thea) was put on the same eye and left for 3 min. […] Three experiments were performed, each with 8 mice per group. In a sub-group of experiments, cornea sensitivity was tested 24 hours after 10 days of topical treatment (10 μl) with 2 mg/mL Fosaprepitant (6 times/day).
Anti-nociceptive effect was calculated as maximal possible effect (% MPE or MPE %) for each mouse according to the following formula:
% MPE=100×(post-treatment wipe count−pre-treatment wipe count)/(0−pre-treatment wipe count).
Unpaired t-test was used to evaluate the differences in nociception after different treatments. A p value <0.05 was considered to be statistically significant. The statistical software GraphPad Prism 5.0 (GraphPad Software, La Jolla, Calif.) was used for all analyses. All data were expressed as mean±standard error of the means (SEM). All methods were performed in accordance with the relevant guidelines and regulations.

ocular pain = experiment: Subjective ocular pain score (0-10) in a treated patient; format: in vivo, human
From the text: (§1) One patient affected with Stage II (Foster) ocular cicatritial pemphigoid and intractable ocular pain was recruited on a compassionate trial of Fosaprepitant, upon administration and acceptance of informed consent, after consultation with the San Raffaele Hospital Ethics Committee. The patient reported the pain to be located on the ocular surface of both eyes and rated it 9/10 on the right eye and 2/10 on the left eye. Visual acuity was light perception in both eyes and the left eye presented a descemetocele. In the right eye the cornea presented diffuse punctate keratopathy, and conjunctival scarring. All the medications in use at time of enrollment were maintained. These included topical medications: tacrolimus 0.02% 3 times a day, dexamethasone phosphate twice a day, Timolol-brinzolamide drops twice a day, lubricants 6 times a day. In addition, the patient was taking systemic prednisone (25 mg); other systemic immunosuppressants had been previously tried to control the disease but had been suspended due to inefficacy or intolerance. In an unsuccessful attempt to control ocular pain, the prednisone dosage was raised up to 25 mg per day and the patient had been started 3 months before with opioid analgesic Tapentadol 50 mg bid and paracetamol 1000 mg tid. Only the right eye was treated. In this study, the patient received treatment with ocular Fosaprepitant 10 mg/mL (50 μl) 6 times/day for 30 days.
(§2) Different filament lengths were tried (starting from 60 mm, 5 mm intervals) until response, and noted. In order to quantify subjective ocular pain, the treated patient was asked to rate the pain felt in the treated eye on a scale from 0 (no pain) to 10 (worst possible pain) before and after the treatment^38.

corneal sensitivity = experiment: Corneal sensitivity, Cochet-Bonnet aesthesiometer, in a treated patient; format: in vivo, human
From the text: as §1
To test corneal sensitivity, a Cochet-Bonnet aesthesiometer (60 mm in length, 0.12 mm diameter) was used. The head of the subject was placed on the chinrest of the slit lamp, and the Cochet-Bonnet filament was neared the volunteer's eye with a perpendicular angle.
as §2

ocular surface [1] = experiment: Gross signs of ocular surface toxicity in the human subject; format: in vivo; settings: topical Fosaprepitant 10 mg/ml 6 times a day for 30 days
From the text: as §1, with “In this study, the patient received treatment with ocular Fosaprepitant 10 mg/mL (50 μl) 6 times/day for 30 days.” left out

cornea = settings: topical Fosaprepitant 10 mg/ml 6 times a day; cited from earlier work
ocular surface [2] = experiment: Gross signs of ocular surface toxicity in mice; settings: topical Fosaprepitant
[3] = Fosaprepitant 10 mg/ml 6 times a day, after one month of treatment

O=C(O)Cc1ccccc1Nc1c(Cl)cccc1Cl [Diclofenac]
% MPE (mouse cornea nociception; Diclofenac 0.1% topical, p=0.0029 vs Fosaprepitant 10 mg/ml): 69.66%

C[C@@H](O[C@H]1OCCN(Cc2nc(O)n(P(=O)(O)O)n2)[C@H]1c1ccc(F)cc1)c1cc(C(F)(F)F)cc(C(F)(F)F)c1 [Fosaprepitant, [3-{[(2R,3S)-2-[(1R)-1-[3,5-bis(trifluoromethyl)phenyl]ethoxy]-3-(4-fluorophenyl)morpholin-4-yl]methyl}-5-oxo-2H-1,2,4-triazol-1-yl]phosphonic acid]
change of cornea sensitivity (mouse cornea nociception; Fosaprepitant 2 mg/ml 6 times a day for 10 days, compared to 10 days PBS instillation, p=0.0195): −31.4%
reduction of cornea sensitivity (mouse cornea nociception; Fosaprepitant 2 mg/ml one time, topical): did not significantly reduce cornea sensitivity
change of cornea sensitivity (mouse cornea nociception; Fosaprepitant 2 mg/ml, single shot vs 10 days treatment, p=0.0174): −27.1%
reduction of nociception (mouse cornea nociception; Fosaprepitant 10 mg/ml single administration vs PBS, p=0.029): −28.1%
maximum possible analgesic effect (MPE) (mouse cornea nociception; Fosaprepitant 10 mg/ml topical, p=0.0006 vs PBS): 44.52%
corneal pain measured as eye wiping counts vs placebo (mouse cornea nociception; Fosaprepitant 50 mg/ml administered once, 30 minutes after administration): significantly reduces corneal pain
maximum possible analgesic effect (MPE) (mouse cornea nociception; Fosaprepitant 50 mg/ml topical, p=0.0001 vs PBS): 52.62%
MPE increase, overall (mouse cornea nociception; Fosaprepitant 50 mg/ml vs PBS, p<0.0001): 21.03 points
MPE (maximal possible effect) (mouse cornea nociception; Fosaprepitant 50 mg/ml, first experiment, SD 14.6): 48.4%
MPE (maximal possible effect) (mouse cornea nociception; Fosaprepitant 50 mg/ml, second experiment, SD 24.9): 43.2%
MPE (maximal possible effect) (mouse cornea nociception; Fosaprepitant 50 mg/ml, third experiment, SD 16.6): 44.2%
reduction of nociception (mouse cornea nociception; Fosaprepitant single administration, 10 mg/ml vs 2 mg/ml, p=0.0005): −23.1%
lower effective concentration in reducing corneal pain (mouse cornea nociception; single administration): 10 mg/mL
corneal sensitivity reduction, WT mice before vs after treatment (mouse cornea nociception; single administration of Fosaprepitant 10 mg/ml, p<0.0001): −47.9
corneal pain score (ocular pain; Fosaprepitant 10 mg/ml 6 times a day, 2 hours after the first instillation, baseline 9/10): 0/10
pain score (ocular pain; [3]): 0/10
pain score (ocular pain; follow-up visit one month after study exit, not constant): 1/10
Cochet Bonnet aesthesiometry (corneal sensitivity; Fosaprepitant 10 mg/ml 6 times a day, 2 hours after the first instillation, baseline 60 mm): 50 mm
Cochet Bonnet aesthesiometry, reduction (corneal sensitivity; [3]): 50%
corneal sensitivity (corneal sensitivity; follow-up visit one month after study exit): 60 mm
signs of ocular surface toxicity (ocular surface [1]): no gross signs of ocular surface toxicity
signs of toxicity to the cornea (cornea): did not show obvious signs of toxicity to the cornea
signs of ocular surface toxicity (ocular surface [2]): no gross signs of ocular surface toxicity

CCCCOc1cc(C(=O)OCCN(CC)CC)ccc1N [Oxybuprocaine]
% MPE (mouse cornea nociception; Oxybuprocaine 4 mg/ml topical, p<0.0001 vs Fosaprepitant 10 mg/ml): 80.59%
MPE difference, Oxybuprocaine higher than Fosaprepitant (mouse cornea nociception; Oxybuprocaine 4 mg/ml vs Fosaprepitant 50 mg/ml, p<0.0001): 35.89 MPE points
MPE increase, overall (mouse cornea nociception; Oxybuprocaine 4 mg/ml vs PBS, p<0.0001): 56.92 points
corneal pain measured as eye wiping counts vs placebo and Fosaprepitant (mouse cornea nociception; Oxybuprocaine 4 mg/ml, topical): significantly reduces corneal pain
MPE (maximal possible effect) (mouse cornea nociception; oxybuprocaine chloride 4 mg/ml, first experiment, SD 9.7): 80.8%
MPE (maximal possible effect) (mouse cornea nociception; oxybuprocaine chloride 4 mg/ml, second experiment, SD 13.9): 84.1%
MPE (maximal possible effect) (mouse cornea nociception; oxybuprocaine chloride 4 mg/ml, third experiment, SD 10.9): 78.2%
